Reference: the supplement of paper PMC10307832

What follows are cell lines tested with C=CCn1c(=O)c2cnc(Nc3ccc(N4CCN(C)CC4)cc3)nc2n1-c1cccc(C(C)(C)O)n1 [Adavosertib] + Cc1cc(Nc2cc(N3CCN(C)CC3)nc(Sc3ccc(NC(=O)C4CC4)cc3)n2)n[nH]1 [Tozasertib] (partner 0.1 µM) (assay: relative viability (nuclei count vs DMSO), 5 days (fraction); higher = more cells survive). Conditions: first compound 0.01 µM.
How it was run: (§1)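 Medians of duplicate plates are given as relative viability. That measure is the nuclei count in treated wells divided by the count in vehicle wells. Counts were taken on 4× images of lung cancer cell lines in 1536-well plates, 5 days after pin-tool dosing the day after seeding with one drug alone or a fixed anchor-drug dose plus five library-drug doses (not always all listed) in √10 steps.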

| Cell Line | relative viability |
| --- | --- |
| LXF-289 | 0.174 |
| NCI-H23 | 0.326 |
| NCI-H322M | 0.481 |
| NCI-H358 | 0.104 |
| NCI-H441 | 0.688 |
| NCI-H460 | 0.533 |
| NCI-H596 | 1.03 |
| NCI-H647 | 0.273 |
| NCI-H650 | 0.75 |
| NCI-H727 | 0.674 |
| NCI-H838 | 0.237 |
| NCI-H1355 | 0.549 |
| NCI-H1395 | 0.757 |
| NCI-H1437 | 0.415 |
| NCI-H1651 | 0.7 |
| NCI-H1666 | 0.642 |
| NCI-H1734 | 0.257 |

| Cell Line | relative viability |
| --- | --- |
| NCI-H1755 | 0.649 |
| NCI-H1793 | 0.352 |
| NCI-H1915 | 0.433 |
| NCI-H1944 | 0.227 |
| NCI-H1975 | 0.842 |
| NCI-H1993 | 0.633 |
| NCI-H2085 | 0.738 |
| NCI-H2087 | 0.303 |
| NCI-H2126 | 0.808 |
| NCI-H2170 | 0.675 |
| NCI-H2347 | 0.476 |
| NCI-H2405 | 0.807 |
| NCI-H3122 | 0.414 |
| PC-3 [JPC-3] | 0.891 |
| PC-14 | 0.6 |
| RERF-LC-KJ | 0.555 |

Same assay, conditions: first compound 0.03162 µM

| Cell Line | relative viability |
| --- | --- |
| LXF-289 | 0.192 |
| NCI-H23 | 0.321 |
| NCI-H322M | 0.453 |
| NCI-H358 | 0.0953 |
| NCI-H441 | 0.685 |
| NCI-H460 | 0.495 |
| NCI-H596 | 0.826 |
| NCI-H647 | 0.276 |
| NCI-H650 | 0.774 |
| NCI-H727 | 0.504 |
| NCI-H838 | 0.268 |
| NCI-H1355 | 0.553 |
| NCI-H1395 | 0.822 |
| NCI-H1437 | 0.389 |
| NCI-H1651 | 0.702 |
| NCI-H1666 | 0.568 |
| NCI-H1734 | 0.24 |

| Cell Line | relative viability |
| --- | --- |
| NCI-H1755 | 0.581 |
| NCI-H1793 | 0.386 |
| NCI-H1915 | 0.441 |
| NCI-H1944 | 0.241 |
| NCI-H1975 | 0.794 |
| NCI-H1993 | 0.598 |
| NCI-H2085 | 0.788 |
| NCI-H2087 | 0.258 |
| NCI-H2126 | 0.834 |
| NCI-H2170 | 0.683 |
| NCI-H2347 | 0.674 |
| NCI-H2405 | 0.83 |
| NCI-H3122 | 0.383 |
| PC-3 [JPC-3] | 0.874 |
| PC-14 | 0.566 |
| RERF-LC-KJ | 0.627 |

Same assay, conditions: first compound 0.1 µM

| Cell Line | relative viability |
| --- | --- |
| LXF-289 | 0.205 |
| NCI-H23 | 0.283 |
| NCI-H322M | 0.436 |
| NCI-H358 | 0.102 |
| NCI-H441 | 0.801 |
| NCI-H460 | 0.534 |
| NCI-H596 | 1.02 |
| NCI-H647 | 0.245 |
| NCI-H650 | 0.806 |
| NCI-H727 | 0.546 |
| NCI-H838 | 0.328 |
| NCI-H1355 | 0.522 |
| NCI-H1395 | 0.853 |
| NCI-H1437 | 0.433 |
| NCI-H1651 | 0.832 |
| NCI-H1666 | 0.678 |
| NCI-H1734 | 0.252 |

| Cell Line | relative viability |
| --- | --- |
| NCI-H1755 | 0.682 |
| NCI-H1793 | 0.4 |
| NCI-H1915 | 0.509 |
| NCI-H1944 | 0.23 |
| NCI-H1975 | 0.835 |
| NCI-H1993 | 0.658 |
| NCI-H2085 | 0.956 |
| NCI-H2087 | 0.273 |
| NCI-H2126 | 0.863 |
| NCI-H2170 | 0.688 |
| NCI-H2347 | 0.718 |
| NCI-H2405 | 0.835 |
| NCI-H3122 | 0.462 |
| PC-3 [JPC-3] | 0.925 |
| PC-14 | 0.843 |
| RERF-LC-KJ | 0.577 |

Same assay, conditions: first compound 0.3162 µM

| Cell Line | relative viability |
| --- | --- |
| LXF-289 | 0.261 |
| NCI-H23 | 0.192 |
| NCI-H322M | 0.342 |
| NCI-H358 | 0.0852 |
| NCI-H441 | 0.636 |
| NCI-H460 | 0.721 |
| NCI-H596 | 0.93 |
| NCI-H647 | 0.317 |
| NCI-H650 | 0.757 |
| NCI-H727 | 0.641 |
| NCI-H838 | 0.283 |
| NCI-H1355 | 0.615 |
| NCI-H1395 | 0.733 |
| NCI-H1437 | 0.421 |
| NCI-H1651 | 0.668 |
| NCI-H1666 | 0.694 |
| NCI-H1734 | 0.266 |

| Cell Line | relative viability |
| --- | --- |
| NCI-H1755 | 0.535 |
| NCI-H1793 | 0.253 |
| NCI-H1915 | 0.524 |
| NCI-H1944 | 0.269 |
| NCI-H1975 | 0.525 |
| NCI-H1993 | 0.666 |
| NCI-H2085 | 0.799 |
| NCI-H2087 | 0.234 |
| NCI-H2126 | 0.924 |
| NCI-H2170 | 0.735 |
| NCI-H2347 | 0.511 |
| NCI-H2405 | 0.877 |
| NCI-H3122 | 0.469 |
| PC-3 [JPC-3] | 0.897 |
| PC-14 | 0.69 |
| RERF-LC-KJ | 0.668 |

These cell lines were tested with C=CCn1c(=O)c2cnc(Nc3ccc(N4CCN(C)CC4)cc3)nc2n1-c1cccc(C(C)(C)O)n1 [Adavosertib] + COc1cc2c(Oc3ccc(NC(=O)C4(C(=O)Nc5ccc(F)cc5)CC4)cc3F)ccnc2cc1OCCCN1CCOCC1 [Foretinib] (partner 0.25 µM) in the same assay as above. Conditions: first compound 0.01 µM.
How it was run: as §1

| Cell Line | relative viability |
| --- | --- |
| LXF-289 | 1.01 |
| NCI-H23 | 1.04 |
| NCI-H322M | 0.886 |
| NCI-H358 | 0.764 |
| NCI-H441 | 1.04 |
| NCI-H460 | 1.05 |
| NCI-H596 | 1.01 |
